The text below walks through data of PubChem BioAssay AID248 (DTP/NCI, 2004).

The test system of this test is L1210 leukemia ip in BDF1 mice, survival T/C. Kind of test: NCI In Vivo Anticancer Drug Screen. Data for tumor model L1210 Leukemia (intraperitoneal) in B6D2F1 (BDF1) mice. The conditions noted are these: endpoint: mean survival time, higher = longer survival. The gist of the method:
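Read-out is survival time, reported as the treated-group measurement over the vehicle-control measurement.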

[1] abbreviates: dose: 50.0 mg/kg/injection, schedule: Q01DX001 (ip), vehicle: saline.
[2] abbreviates: dose: 100.0 mg/kg/injection, schedule: Q01DX001 (ip), vehicle: saline.
The mark [3] stands for this setting: dose: 100.0 mg/kg/injection, schedule: Q04DX003 (ip), vehicle: saline.
[4] abbreviates: dose: 200.0 mg/kg/injection, schedule: Q04DX003 (ip), vehicle: saline.
Where [5] appears, read: dose: 400.0 mg/kg/injection, schedule: Q04DX003 (ip), vehicle: saline.
[6] abbreviates: dose: 50.0 mg/kg/injection, schedule: Q04DX003 (ip), vehicle: saline.
Setting [7] is: dose: 75.0 mg/kg/injection, schedule: Q01DX001 (ip), vehicle: other.
Setting [8] is: dose: 150.0 mg/kg/injection, schedule: Q01DX001 (ip), vehicle: other.
[9] abbreviates: dose: 100.0 mg/kg/injection, schedule: Q01DX009 (ip), vehicle: saline with Tween-80.
The mark [10] stands for this setting: dose: 100.0 mg/kg/injection, schedule: Q04DX003 (ip), vehicle: saline with Tween-80.
The mark [11] stands for this setting: dose: 200.0 mg/kg/injection, schedule: Q01DX009 (ip), vehicle: saline with Tween-80.
[12] abbreviates: dose: 200.0 mg/kg/injection, schedule: Q04DX003 (ip), vehicle: saline with Tween-80.
Where [13] appears, read: dose: 25.0 mg/kg/injection, schedule: Q04DX003 (ip), vehicle: saline.

SMILES strings stand for the structures. Values joined by “and” are separate entries in the source; they are usually repeats but may differ in a detail not shown here. Equal values may be shown once. Inconclusive results and toxic doses are left out.

With `Fc1ccc(NC(=S)N/N=C\c2ccc(Cl)cc2Cl)cc1`, the T/C (dose: 60.0 mg/kg/injection, schedule: Q01DX Z (oral), vehicle: methylcellulose (MC)) is 103 % of control; the T/C (dose: 120.0 mg/kg/injection, schedule: Q01DX Z (oral), vehicle: methylcellulose (MC)) was 89 % of control; the T/C (dose: 240.0 mg/kg/injection, schedule: Q01DX Z (ip), vehicle: methylcellulose (MC)) was 89 % of control; the T/C (dose: 240.0 mg/kg/injection, schedule: Q01DX Z (oral), vehicle: methylcellulose (MC)) is 93 % of control; the T/C (dose: 480.0 mg/kg/injection, schedule: Q01DX Z (oral), vehicle: methylcellulose (MC)) is 95 % of control.

Consider `COc1cc(/C=C2\C(O)C3CCN2CC3)cc(OC)c1OC` (stereo not drawn), for which the T/C is 115 % of control (dose: 100.0 mg/kg/injection, schedule: Q04DX002 (ip), vehicle: saline) and 118 % of control (dose: 200.0 mg/kg/injection, schedule: Q04DX002 (ip), vehicle: saline).

Consider `CC1NC(c2ccccc2)N(C(Cc2ccccc2)C(=O)O)C1=O` (stereo not drawn), for which the T/C runs as follows: under setting [1], 94 % of control; under setting [2], 89 % of control; (dose: 200.0 mg/kg/injection, schedule: Q01DX001 (ip), vehicle: saline) 99 % of control.

`Cc1csc(C)[n+]1[O-]`: the T/C reads like this: under setting [3], 102 % of control; under setting [4], 101 % of control; under setting [5], 98 % of control.

Consider `Nc1ccc(NC=O)c(Cl)c1`, for which the T/C under setting [3] is 102 % of control, the T/C under setting [4] was 108 % of control and the T/C under setting [5] was 102 % of control.

As to `Cc1cc[n+](CCc2ccccc2)cc1`, the T/C reads like this: (dose: 12.5 mg/kg/injection, schedule: Q01DX009 (ip), vehicle: carboxymethylcellulose (CMC)) 97 % of control; (dose: 25.0 mg/kg/injection, schedule: Q01DX009 (ip), vehicle: carboxymethylcellulose (CMC)) 97 % of control; (dose: 50.0 mg/kg/injection, schedule: Q01DX009 (ip), vehicle: carboxymethylcellulose (CMC)) 105 % of control; under setting [6], 100 % of control; (dose: 75.0 mg/kg/injection, schedule: Q01DX001 (ip), vehicle: carboxymethylcellulose (CMC)) 108 % of control; under setting [7], 104 % of control. Also, the T/C under setting [3] is 92 % of control and 100 % of control; the T/C (dose: 150.0 mg/kg/injection, schedule: Q01DX001 (ip), vehicle: carboxymethylcellulose (CMC)) is 115 % of control; the T/C under setting [8] is 104 % of control; the T/C (dose: 300.0 mg/kg/injection, schedule: Q01DX001 (ip), vehicle: other) is 105 % of control.

In the case of `CCNC(=O)Nc1ccc(N(CC)CC)cc1`, the T/C under setting [9] was 93 % of control; the T/C under setting [10] is 103 % of control; the T/C under setting [11] was 87 % of control; the T/C under setting [12] was 96 % of control; the T/C (dose: 400.0 mg/kg/injection, schedule: Q01DX009 (ip), vehicle: saline with Tween-80) was 98 % of control; the T/C (dose: 400.0 mg/kg/injection, schedule: Q04DX003 (ip), vehicle: saline with Tween-80) is 96 % of control.

Turning to `Nc1cc(Cl)nc(Cl)n1`, the T/C was 89 % of control (dose: 29.0 mg/kg/injection, schedule: Q01DX Z (ip), vehicle: methylcellulose (MC)); 100 % of control (dose: 45.0 mg/kg/injection, schedule: Q01DX Z (ip), vehicle: methylcellulose (MC)); 96 % of control (dose: 67.0 mg/kg/injection, schedule: Q01DX Z (ip), vehicle: methylcellulose (MC)); 92 % of control (dose: 100.0 mg/kg/injection, schedule: Q01DX Z (ip), vehicle: methylcellulose (MC)).

Regarding `COc1ccc2c(c1)C1C=[S+]c3ccccc3C1N2` (stereo not drawn), the T/C was 101 % of control (dose: 12.5 mg/kg/injection, schedule: Q01DX009 (ip), vehicle: saline); 95 % of control (dose: 12.5 mg/kg/injection, schedule: Q04DX003 (ip), vehicle: saline); 103 % of control (dose: 25.0 mg/kg/injection, schedule: Q01DX009 (ip), vehicle: saline); 92 % of control under setting [13]; 98 % of control under setting [6].

With `CN(C)CCCCCO`, the T/C (dose: 25.0 mg/kg/injection, schedule: Q01DX009 (ip), vehicle: saline with Tween-80) is 96 % of control; the T/C (dose: 50.0 mg/kg/injection, schedule: Q01DX009 (ip), vehicle: saline with Tween-80) is 102 % of control and 87 % of control; the T/C under setting [9] is 91 % of control; the T/C under setting [10] is 97 % of control; the T/C under setting [11] is 100 % of control; the T/C under setting [12] was 100 % of control.

Turning to `CC(=O)Nc1ccc2c(c1)Cc1cc(N=Cc3ccc4c(c3)OCO4)ccc1-2`, the T/C was 91 % of control (dose: 100.0 mg/kg/injection, schedule: Q01DX001 (ip), vehicle: carboxymethylcellulose (CMC)); 104 % of control (dose: 200.0 mg/kg/injection, schedule: Q01DX001 (ip), vehicle: carboxymethylcellulose (CMC)); 93 % of control (dose: 400.0 mg/kg/injection, schedule: Q01DX001 (ip), vehicle: carboxymethylcellulose (CMC)).

Take `O=C(NCCCl)NC1CC1c1ccccc1` (stereo not drawn): the T/C under setting [7] is 97 % of control and the T/C under setting [8] is 103 % of control.

For `C1O[C@@H]1[C@@H]1CO1`, the T/C was 110 % of control (dose: 10.5 mg/kg/injection, schedule: Q01DX015 (ip), vehicle: saline); 110 % of control (dose: 18.0 mg/kg/injection, schedule: Q01DX015 (ip), vehicle: saline); 111 % of control and 116 % of control (dose: 44.0 mg/kg/injection, schedule: Q01DX001 (ip), vehicle: saline); 150 % of control (dose: 66.0 mg/kg/injection, schedule: Q01DX001 (ip), vehicle: saline); 173 % of control under setting [2]; 167 % of control (dose: 100.0 mg/kg/injection, schedule: Q01DX010 (ip), vehicle: water). For the same compound, the T/C was 186 % of control (dose: 200.0 mg/kg/injection, schedule: Q01DX010 (ip), vehicle: water); 189 % of control (dose: 400.0 mg/kg/injection, schedule: Q01DX010 (ip), vehicle: water); 157 % of control (dose: 600.0 mg/kg/injection, schedule: Q01DX010 (ip), vehicle: water).

Regarding `O=C(CCC(=O)Nc1ccc(Cl)c(Cl)c1)Nc1ccc(Cl)c(Cl)c1`, the T/C was 93 % of control (dose: 100.0 mg/kg/injection, schedule: Q04DX002 (ip), vehicle: Klucel (hydroxypropylcellulose) (HPC)); 89 % of control (dose: 200.0 mg/kg/injection, schedule: Q04DX002 (ip), vehicle: Klucel (hydroxypropylcellulose) (HPC)); 104 % of control (dose: 400.0 mg/kg/injection, schedule: Q04DX002 (ip), vehicle: Klucel (hydroxypropylcellulose) (HPC)).

For `COc1cc2c(cc1OC)C13CCN4CC5=CCOC6CCN2C1C6C5CC43` (stereo not drawn), the T/C was 101 % of control under setting [13], 109 % of control under setting [6], 86 % of control under setting [10] and 106 % of control under setting [3].

Consider `COc1ccc(C(C#N)N(C)C)cc1OC` (stereo not drawn), for which the T/C by setting is: under setting [1], 100 % of control; under setting [2], 100 % of control.

For `CN(C)CC1(c2ccccc2)CC[N+](C)(C)C1` (stereo not drawn), the T/C by setting is: (dose: 75.0 mg/kg/injection, schedule: Q01DX001 (ip), vehicle: saline) 89 % of control; (dose: 150.0 mg/kg/injection, schedule: Q01DX001 (ip), vehicle: saline) 93 % of control.

Regarding `CCC(O)(/C(=N/Nc1ccc([N+](=O)[O-])cc1[N+](=O)[O-])c1ccccc1)c1ccccc1` (stereo not drawn), the T/C is, setting by setting: (dose: 100.0 mg/kg/injection, schedule: Q01DX001 (ip), vehicle: saline with Tween-80) 94 % of control; (dose: 200.0 mg/kg/injection, schedule: Q01DX001 (ip), vehicle: saline with Tween-80) 89 % of control; (dose: 400.0 mg/kg/injection, schedule: Q01DX001 (ip), vehicle: saline with Tween-80) 89 % of control.

`O=C(O)c1ccccc1Cc1cccc2c(Cl)cccc12`: the T/C was 97 % of control (dose: 100.0 mg/kg/injection, schedule: Q01DX001 (ip), vehicle: Klucel (hydroxypropylcellulose) (HPC)); 98 % of control (dose: 200.0 mg/kg/injection, schedule: Q01DX001 (ip), vehicle: Klucel (hydroxypropylcellulose) (HPC)); 101 % of control (dose: 400.0 mg/kg/injection, schedule: Q01DX001 (ip), vehicle: Klucel (hydroxypropylcellulose) (HPC)).
